Measurements reported in patent publication US20250273333A1, “Methods and Apparatus for Diagnosis of Progressive Kidney Function Decline Using a Machine Learning Model” (ICAHN SCHOOL OF MEDICINE AT MOUNT SINAI, priority 2020, published 2025).
Values joined by “and” are separate entries in the source; they are usually repeats but may differ in a detail not shown here. Equal entries are not always repeated.

How the values were obtained:
Format in all cases: in vivo, human
[1] = tested on: participants with type 2 diabetes and prevalent DKD; assay: CANVAS trial post hoc analysis: composite kidney outcome, canagliflozin vs placebo, by KidneyIntelX risk strata; conditions: for incidence of the composite kidney outcome: canagliflozin arm
Method: (§1) Blood and urine samples for exploratory biomarker research can be stored during the CANVAS trial. In some instances, participants can be randomly assigned using a central web-based response system in a 1:1:1 ratio to treatment with 100 mg canagliflozin, 300 mg canagliflozin, or matching placebo. In some instances, participants can be assigned to treatment with canagliflozin or placebo followed for a median of 6.1 years. All participants, care providers, trial staff, and outcome assessors can be blinded to treatment allocation for the duration of the study. KidneyIntelX algorithm can be indicated for individuals with type 2 diabetes and prevalent DKD, defined by an eGFR ≥30 to 59.9 ml/min/1.73 m2 (G3a and G3b) or those with eGFR ≥60 ml/min/1.73 m2 with a UACR ≥30 mg/g to assess the risk for progressive decline in kidney function within a time period (e.g., 5 years). Thus, for analyses, the subgroup of the CANVAS population can be restricted to meet criteria for prevalent DKD at a time of enrollment.
(§2) A composite kidney outcome for such post hoc analysis can be defined as: A) progressive decline in kidney function (rapid kidney function decline (e.g., RKFD; with eGFR decline of ≥5 ml/min/year)); B) a sustained 40% decline of eGFR; or C) kidney failure defined as an eGFR <15 mL/min/1.73 m^2 or need for dialysis or kidney transplantation. In CANVAS, eGFR measurements were available at baseline, 6 weeks and annually. Since hemodynamic effects of SGLT2i on acute changes in eGFR, the anchor/baseline to define progressive decline in kidney function and 40% decline in eGFR for participants in the canagliflozin arm can be the eGFR value at 6 weeks. In some instances, when the eGFR value meet ≥40% decline from baseline only on the last eGFR obtained in the CANVAS protocol, then the event can be adjudicated by a blinded adjudication committee to determine qualification as a valid event. In some instances, eGFR slopes can be determined by linear mixed models.
Continuous baseline variables with normal distributions can be reported as means with standard deviations (SDs). Variables with skewed distributions can be reported as median values with interquartile range (IQRs) and can be natural logarithm transformed before analysis. Furthermore, categorical variables can be reported as percentages. Risk values can be calculated by the KidneyIntelX (using the diagnosis device 101) on the participants in the placebo and canagliflozin arms of CANVAS with prevalent DKD, with the inputs as per the currently commercially available test which include the following: baseline TNFR-1, TNFR-2 and KIM-1 levels, TNFR-2/TNFR-1 ratio, KIM-1/TNFR-1 ratio, eGFR, UACR, HbA1C, systolic BP, AST, platelets, and serum calcium. The risk score cutoffs that were previously validated can applied to the CANVAS participants with DKD and available baseline plasma. Each individual can be allocated a predicted probability of the composite outcome using the baseline inputs as per the risk value generated by the KidneyIntelX algorithm and a continuous KidneyIntelX score between 5 and 100 in increments of 5. For example, consistent with the pre-defined commercial cut offs, participants with a risk value between 5 and 45 can be classified as “low risk”, between 50 and 85 can be classified as “intermediate risk”, and those with a risk value between 90 and 100 can be classified as “high risk”. Therefore, by determining proportion experiencing the composite kidney event within the categorical risk strata and used logistic regression, the relative odds of the endpoint for high vs. low risk and intermediate risk score strata can be determined.
Proportion of participants that experienced composite kidney outcome by KidneyIntelX algorithm risk strata can be compared to a proportion as classified by participants' Kidney Disease Improving Global Outcomes (KDIGO) KDIGO risk strata based on their baseline eGFR and UACR value. […]

[2] = tested on: participants with type 2 diabetes and prevalent DKD; assay: CANVAS trial post hoc analysis: chronic eGFR slope, canagliflozin vs placebo, by risk strata
Method: as §1, §2
To explore whether baseline KidneyIntelX scores modified the treatment effect of canagliflozin versus placebo on the composite kidney outcome and chronic eGFR compared to the treatment effect as per the baseline KDIGO risk strata, tests for heterogeneity can be performed by adding interaction terms between KidneyIntelX or KDIGO and randomized treatment assignment to the relevant logistic regression models for the categorical outcome and mixed linear models for the eGFR slopes. The treatment effect of canagliflozin versus placebo on KidneyIntelX risk scores over time can be assessed by calculating the difference of change in risk values generated by the KidneyIntelX algorithm (e.g., using the diagnosis device 101) between treatment arms using mixed linear models. […]

[3] = tested on: participants with type 2 diabetes and prevalent DKD; assay: CANVAS trial post hoc analysis: KidneyIntelX risk score over time, canagliflozin vs placebo
Method: Blood and urine samples for exploratory biomarker research can be stored during the CANVAS trial. In some instances, participants can be randomly assigned using a central web-based response system in a 1:1:1 ratio to treatment with 100 mg canagliflozin, 300 mg canagliflozin, or matching placebo. In some instances, participants can be assigned to treatment with canagliflozin or placebo followed for a median of 6.1 years. All participants, care providers, trial staff, and outcome assessors can be blinded to treatment allocation for the duration of the study. […]
Continuous baseline variables with normal distributions can be reported as means with standard deviations (SDs). […] Risk values can be calculated by the KidneyIntelX (using the diagnosis device 101) on the participants in the placebo and canagliflozin arms of CANVAS with prevalent DKD, with the inputs as per the currently commercially available test which include the following: baseline TNFR-1, TNFR-2 and KIM-1 levels, TNFR-2/TNFR-1 ratio, KIM-1/TNFR-1 ratio, eGFR, UACR, HbA1C, systolic BP, AST, platelets, and serum calcium. […] Therefore, by determining proportion experiencing the composite kidney event within the categorical risk strata and used logistic regression, the relative odds of the endpoint for high vs. low risk and intermediate risk score strata can be determined. […]

For `Cc1ccc([C@@H]2O[C@H](CO)[C@@H](O)[C@H](O)[C@H]2O)cc1Cc1ccc(-c2ccc(F)cc2)s1` [canagliflozin, (2S,3R,4R,5S,6R)-2-[3-[[5-(4-fluorophenyl)thiophen-2-yl]methyl]-4-methylphenyl]-6-(hydroxymethyl)oxane-3,4,5-triol], the “RR for composite kidney outcome, canagliflozin vs. placebo” value ([1]; all participants with baseline biomarkers, 95% CI 0.49, 0.99) was 0.70, the “incidence of the composite kidney outcome” value (from here on “incidence”) ([1]; high risk KidneyIntelX stratum) was 23.0% and 23.5% and the “incidence” value ([1]; intermediate risk KidneyIntelX stratum, mean follow-up 5.6 years) was 9.5%. The “incidence” value ([1]; low risk KidneyIntelX stratum, mean follow-up 5.6 years) was 3.6%, the “composite kidney outcome occurrence” value ([1]; canagliflozin group, all participants with baseline biomarkers (placebo 11.6%)) was 8.9% and the “RR for the kidney outcome, canagliflozin vs. placebo” value ([1]; high-risk KidneyIntelX stratum, 95% CI 0.38-1.18) was 0.67. The “absolute risk reduction (ARR) for composite kidney outcome” value ([1]; high-risk KidneyIntelX stratum, vs placebo arm 31.4%) was 7.9%, the “RR for the kidney outcome, canagliflozin vs. placebo” value ([1]; intermediate KidneyIntelX stratum, 95% CI 0.36-0.98) was 0.59 and the “RR for the kidney outcome, canagliflozin vs. placebo” value ([1]; low-risk KidneyIntelX stratum, 95% CI 0.54-5.08) was 1.65. The “difference in chronic eGFR slope, canagliflozin vs. placebo (protection for eGFR decline)” value ([2]; high risk KidneyIntelX stratum) was 2.16 ml/min/1.73 m2, the “difference in chronic eGFR slope, canagliflozin vs. placebo” value ([2]; highest risk KDIGO stratum) was 1.31 ml/min/1.73 m2 and the “difference in chronic eGFR slope, canagliflozin vs. placebo (protection for eGFR decline)” value ([2]; low risk KidneyIntelX stratum) was 0.66 ml/min/1.73 m2. For the same molecule, the “difference in chronic eGFR slope, canagliflozin vs. placebo (protection for eGFR decline)” value ([2]; moderate/intermediate risk KidneyIntelX stratum) was 1.52 ml/min/1.73 m2, the “duration of effect on KidneyIntelX” value ([3]; over follow-up, vs placebo (FIG. 24)) was “persisted over time until the end of follow-up” and the “decrease of KidneyIntelX from baseline to one year” value ([3]; randomized to canagliflozin, 95% CI -6.9 to -3.9, placebo increased 6.2%, p<0.001) was 5.4%.
